From paper PMC5152890 (PLoS ONE, 2016)
Read-outs that look alike come from different tables or passages of the source.

Key:
[1] = target: T1, hVEGFR1-ECD (Homo sapiens, UniProt P17948); assay type: binding; settings: for % displacement at 30 μM: 1% DMSO; for IC50: read-out: IC50 [95% CI]; for effect on the competition assay (in words): divalent cations, VEGF-A/hVEGFR1 interaction
T1 construct: purchased R&D Systems, Abingdon, UK

[2] = target: T2, hVEGFR1d2 (Homo sapiens, UniProt P17948); test: analytical size exclusion chromatography of hVEGFR1d2 dimerization; settings: 1 mM CuSO4, 160 μM hVEGFR1d2, gel filtration
T2 construct: The human hVEGFR1d2 protein (residues 132–226) was expressed and purified; made in house; host or cells: E. coli Rosetta-gami(DE3)pLysS is stated only for the 15N-labelled batch
Protocol: Because the competition assay results indicated a higher effect of Cu^2+ ions compared to Zn^2+ or Co^2, the Cu^2+-induced dimerization of hVEGFR1d2 in solution was verified using analytical gel-filtration chromatography. In the presence of 1 mM EDTA a single hVEGFR1d2 peak was observed, which represents the monomer (apparent MW = 14.9 kDa). In the presence of 1 mM CuSO4, two peaks were eluted corresponding respectively to the hVEGFR1d2 dimer (78% of absorption, apparent MW = 27.9 kDa) and monomer (apparent MW = 15.8 kDa). SDS-PAGE analysis confirmed that both peaks consist of hVEGFR1d2 (Fig 7).
The Cu^2+-induced dimerization of hVEGFR1d2 was confirmed using a precalibrated analytical gel-filtration column (Superdex™75 HR 10/300 Amersham GE Healthcare, Little Chalfont, UK). Prior to loading, samples were prepared by incubating 160 μM hVEGFR1d2 in a buffer containing 25 mM Tris-HCl, pH 8.1, 250 mM NaCl, and either 1 mM EDTA or 1mM CuSO4 for 30 min at 18°C. Subsequently, 50 μL of this mixture was loaded at 0.5 mL/min on the column that was equilibrated with the identical respective buffers. Elution peaks were integrated, and the corresponding fractions were analyzed on SDS-PAGE.

[3] = biotinylated VEGF-A165 displaced by 30 μM of metal on whole ECD (d1-d7) of VEGFR1
[4] = concentration displacing 50% of biotinylated VEGF-A165 binding on VEGFR1 (ECD)

T1 sequence (P17948 27-687 isoform P17948-2): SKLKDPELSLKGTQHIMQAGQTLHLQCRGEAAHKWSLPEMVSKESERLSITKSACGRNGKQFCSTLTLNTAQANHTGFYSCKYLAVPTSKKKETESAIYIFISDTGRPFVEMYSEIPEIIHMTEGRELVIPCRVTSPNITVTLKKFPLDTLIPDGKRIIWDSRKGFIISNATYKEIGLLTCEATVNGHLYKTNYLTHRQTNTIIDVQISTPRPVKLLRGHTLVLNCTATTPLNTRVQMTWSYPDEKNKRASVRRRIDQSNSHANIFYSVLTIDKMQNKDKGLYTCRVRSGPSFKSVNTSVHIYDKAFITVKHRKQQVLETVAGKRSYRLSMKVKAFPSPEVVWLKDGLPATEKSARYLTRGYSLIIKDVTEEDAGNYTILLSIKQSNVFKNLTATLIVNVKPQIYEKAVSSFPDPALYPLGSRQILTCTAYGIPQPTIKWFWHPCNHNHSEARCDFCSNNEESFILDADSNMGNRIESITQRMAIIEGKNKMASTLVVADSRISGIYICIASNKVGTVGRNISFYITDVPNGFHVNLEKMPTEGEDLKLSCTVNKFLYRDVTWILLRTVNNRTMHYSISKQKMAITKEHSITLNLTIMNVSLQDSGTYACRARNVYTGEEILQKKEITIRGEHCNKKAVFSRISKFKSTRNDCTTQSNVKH
T2 sequence (P17948 132-226): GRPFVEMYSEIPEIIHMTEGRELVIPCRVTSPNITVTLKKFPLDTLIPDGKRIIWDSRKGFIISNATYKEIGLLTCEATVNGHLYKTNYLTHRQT

SMILES	% displacement at 30 μM [1, 3] [%]	IC50 [1, 4] [µM]	further results
[Cl][Pd][Cl] [PdCl2]	93 ± 1	0.25	–
O=S(=O)([O-])[O-].[Zn+2] [ZnSO4]	61 ± 2	5.94	–
O=S(=O)([O-])[O-].[Mn+2] [MnSO4]	0	–	–
[Ni+2] [Ni^2+]	–	–	IC50 [95% CI] [1, 4]: within the micromolar range
O=S(=O)([O-])[O-].[Cu+2] [CuSO4]	83 ± 8	0.97	hVEGFR1d2 dimer peak, % of absorption [2]: 78%
[Cd+2] [Cd^2+]	–	–	effect on the competition assay (in words) [1]: little
[Mn+2] [Mn^2+]	–	–	effect on the competition assay (in words) [1]: no effect
[Zn+2] [Zn^2+]	–	–	IC50 [95% CI] [1, 4]: within the micromolar range
O=S(=O)([O-])[O-].[Fe+2] [FeSO4]	13 ± 5	–	–
[Cu+2] [Cu^2+]	–	–	disruption of the VEGF-A/hVEGFR1-ECD interaction in the presence of a metal chelator ([1]; with EDTA, 1 eq.): unable to disrupt the VEGF-A/hVEGFR1-ECD interaction
[Co+2] [Co^2+]	–	–	effect on the competition assay (in words) [1]: little
O=S(=O)([O-])[O-].[Na+].[Na+] [Na2SO4]	0	–	–
[Cl][Cu][Cl] [CuCl2]	87 ± 2	1.26	–
CC(=O)[O-].CC(=O)[O-].[Pd+2] [Pd(OAc)2]	97 ± 3	0.36	–
[Cl][Cd][Cl] [CdCl2]	38 ± 4	48	–
[Fe+2] [Fe^2+]	–	–	effect on the competition assay (in words) [1]: no effect
CC(=O)[O-].CC(=O)[O-].[Cu+2] [Cu(OAc)2]	69 ± 2	1.32	–
[Cl-].[Cl-].[Co+2] [CoCl2]	–	–	% displacement at 30 μM [1]: 40 ± 2%; IC50 [1]: 47.1 µM
O=S(=O)([O-])[O-].[Co+2] [CoSO4]	44 ± 1	–	–
O=S(=O)([O-])[O-].[Ni+2] [NiSO4]	75 ± 1	3.54	–
